Where a SMILES comes first, the peptide text is derived from it. The star is where a group is joined. Daunorubicin(13-NOCH2CO) = COc1cccc2c1C(=O)c1c(O)c3c(c(O)c1C2=O)C[C@@](O)(C(C)=NOCC(=O)*)C[C@@H]3O[C@H]1C[C@H](N)[C@H](O)[C@H](C)O1
Legend:
Colo-205 cells = format: cell-based, human; settings: 1e-5 M
Method: (§1) EBC-1 and Colo-205 model cells have weak/negligible adherent properties, and A2058 cells could not produce constant cell index values. Therefore, a colorimetric assay (alamarBlue-assay) was chosen instead of the xCELLigence system to investigate the viability of these model cells treated with the conjugates. Due to the growth characteristics of NHDF cells, alamarBlue-assay was performed also on this cell line.
(§2) The protocol for the alamarBlue-assay was similar to the method which was published earlier, with some minor modifications. Briefly, the cell seeding occurred on 96-well cell culture plates (Sarstedt AG, Nümbrecht, Germany) at 10^4 cells/well concentration. After a 24 h long culturing period, the treatment was carried out with the conjugates at 10^−4, 10^−5 and 10^−6 M final concentrations for 24, 48 and 72 h. In the next steps, the alamarBlue reagent (0.15 mg/mL, Sigma-Aldrich) dissolved in phosphate-buffered saline (PBS; pH = 7.2), was added to the wells. After 6 h incubation with the reagent, the fluorescence intensity of the samples was obtained by an LS-50B Luminescence Spectrometer (Perkin Elmer Ltd., Buckinghamshire, UK) or a Fluoroskan^TM FL Microplate Fluorometer and Luminometer (Thermo Scientific, Waltham, MA, USA) by using the following settings: λex = 560 nm and λem = 590 nm.
(§3) Three parallels were performed per treatment group. In the case of controls, an equivalent volume of cell culture media was added to the cell. Fluorescence intensities of the samples treated with various concentrations of conjugates were expressed as a percentage of the fluorescence of control.

A2058 cells = format: cell-based, human; settings: 1e-5 M
Method: as §1, §2, §3

EBC-1 cells = format: cell-based, human; settings: 1e-5 M
Method: as §1, §2, §3

[1] = Acute and chronic toxicity in healthy mice; format: in vivo; settings: healthy Balb/c male mice, 3 per group; i.p.; acute 3.125, 6.25, 12.5, 25 mg/kg Dau-content single; chronic 10 mg/kg Dau-content on days 1, 3, 7, 9, 11; 14 days
Method: Prior to the determination of in vivo antitumor activity, the acute and chronic toxicity studies of conjugate 4 (Dau=Aoa-GFLG-K(Dau=Aoa)-SKAAKN-OH) were investigated. Healthy Balb/c male mice (3 animals in each group with 29–33 g body weight) were used for these experiments. The conjugate was dissolved in sterile water for injection (Pharmamagist Kft., Budapest, Hungary) and injected in a volume of 0.1 mL/10 g body weight using the appropriate concentrations. In acute toxicity study, intraperitoneal (i.p.) administration of the conjugate 4 was carried out in 4 different doses: 3.125, 6.25, 12.5 and 25 mg/kg Dau-content. In chronic toxicity study, mice were treated with a dose of 10 mg/kg Dau-content of the conjugate on days 1, 3, 7, 9 and 11 (5 treatments). The toxicity was evaluated on the basis of life span, behavior and looking of the mice, as well as body weight. These parameters were followed for 14 days.

PANC-1 cells = assay: cells; format: cell-based, human; settings: 24 h
Method: This measurement is based on the registration of electrical resistance (impedance, Z) in alternating current (AC) field. The living cells transplanted to the gold measuring electrodes are physically insulated by phospholipid bilayer that covers them. This instrumentally measurable property changes (decreases) in response to cellular cytotoxic agents. Our measurements were performed on xCELLigence single plate (ACEA Biosciences, San Diego, CA, USA) dedicated for impedimetric analysis of cellular samples at 37 °C and 5% CO2.
During the initial phase of the experiments—the baseline recording—a special 96-well cell culture plate, E-plate (ACEA Biosciences), equipped with measuring electrodes, was pretreated with freshly prepared cell culture medium (for 60 min; sampling frequency: 1 min). Subsequently, PANC-1 cells were plated at a cell density of 10^4 cells/well. During the 24 h incubation, the cells evenly covered the electrodes at the bottom of the wells of the E-plate. The resulting confluent cell cultures were then treated with the test substances at the following final concentrations: 10^−6, 10^−5, 10^−4 M. Total treatment duration was 72 h and the sampling rate was 1 min (0–24 h); and then 15 min (48–72 h). In our measurements, three replicates were used, the control was the drug-free medium. […] The CI results were analyzed with xCELLigence RTCA 2.0 software and Origin Pro 8.0 software.

In the case of `COc1cccc2c1C(=O)c1c(O)c3c(c(O)c1C2=O)C[C@@](O)(C(C)=NOCC(=O)NCCCC[C@H](NC(=O)CNC(=O)[C@H](CC(C)C)NC(=O)[C@H](Cc1ccccc1)NC(=O)CNC(=O)CON=C(C)[C@]1(O)Cc2c(O)c4c(c(O)c2[C@@H](O[C@H]2C[C@H](N)[C@H](O)[C@H](C)O2)C1)C(=O)c1c(OC)cccc1C4=O)C(=O)N[C@@H](CO)C(=O)N[C@@H](CCCCN)C(=O)N[C@@H](C)C(=O)N[C@@H](C)C(=O)N[C@@H](CCCCN)C(=O)N[C@@H](CC(N)=O)C(=O)O)C[C@@H]3O[C@H]1C[C@H](N)[C@H](O)[C@H](C)O1` [conjugate 4, Dau=Aoa-GFLG-K(Dau=Aoa)SKAAKN-OH] ({Daunorubicin(13-NOCH2CO)}-GFLGK(Daunorubicin(13-NOCH2CO))SKAAKN-OH), the “Viability (%) at 10-5 M concentration, after 72 h incubation, Colo-205” value (Colo-205 cells) is reported as 19.8 ± 0.5%, the “Viability (%) at 10-5 M concentration, after 72 h incubation, A2058” value (A2058 cells) is reported as 29.8 ± 4.5% and the “Viability (%) at 10-5 M concentration, after 72 h incubation, EBC-1” value (EBC-1 cells) is reported as 32.2 ± 4.2%. For the same molecule, the “Acute and chronic toxicity (body weight, general looking, behavior)” value [1] was “not toxic at the applied concentrations”, the “Cell viability at 10^−6 M” value (PANC-1 cells; 1e-6 M) was “higher than 100%” and the “Viability after 24 h” value (PANC-1 cells; 1e-5 M) was 91%.
